According to US11471502B2, “Neuroprotective peptide” (UNIVERSITY COLLEGE CARDIFF C[…], priority 2017, dated 2022):

Assays:
[1] = system: ERK signalling in the striatum; experiment: Single in vivo injection, IHC/immunofluorescence of nuclear and cytoplasmic ERK markers in striatum; set-up: species or system mouse; settings: 1 h
Method: a) RB5 peptide selectively promoted activation of ERK2. Acute striatal slices either pre-treated with Scramble (SCR) or RB5 peptide (50 μM) and then stimulated 10 minutes with glutamate (GLU) (100 μM) or vehicle were analysed in Western blot (left panel) and probed with anti phospho ERK antibodies (p44^ERK1 and p42^ERK2) and anti ERK1/2 antibody. GAPDH was used as loading control. […] No changes were detected in the total ERK1 and ERK2 levels. GAPDH was used as loading control. […] Mice injected with a single dose of CPP-SCR or CPP-RB5 peptides (20 mg/kg, i.p.) were rapidly perfused 1 h later and brains were dissected and further analysed for IHC and immunofluorescence. Representative photomicrographs of pERK1/2, pMSK, pAch3, pELK1 and c-Fos expression in the striatum. […] Two-way ANOVA Bonferroni post hoc comparison: one black star, p<0.05, two black stars, p<0.01, one white star, p<0.001. p) Dose response curve of RB5 peptide for ERK activation. 200 μm thick striatal slices were freshly prepared from 2-month old mice and transferred into a perfusion chamber for 1 h at 32° C. Slices were pre-treated with different doses of RB5 or scrambled control. After 1 h, slices for each dose was fixed in PFA 4% for 15 min. 18 μm cryo-sections were processed for immunohistochemistry with anti-phospho p44/p42 MAP kinase. Neuronal quantification was performed with ImageJ software by counting the number of phospho-ERK positive cells in each slice. The level of activation is expressed on the Y-axis as arbitrary units (AU). Doses are reported in a logarithmic scale (Log 10) on the X-axis. The EC50 was calculated using GraphPad Prism software.
At the indicated times after drug treatments, animals were anaesthetised and transcardially perfused with ice-cold buffered 4% PFA. Brains were extracted, post-fixed overnight and transferred to 30% buffered sucrose for 24 h. Coronal sections were cut to a 35 μm thickness on a freezing microtome and stored in a cryoprotective solution at −20° C. until processing for immunohistochemistry or immunofluorescence.
1 h after CPP-RB5/CPP-SCR (20 mg/kg, i.p.) mice were anaesthetized and perfused via intracardiac infusion of ice-cold 4% PFA. Brains were rapidly extracted, post-fixed overnight and transferred to 25% buffered sucrose for 24 h. Coronal sections were cut at 30 μm thickness on a freezing microtome and stored in a cryoprotective solution at −20° C. until they were processed for immunohistochemistry. Free-floating sections were incubated with primary antibodies against anti-phospho-p44/42 MAP kinase (Thr202/Tyr204), anti-phospho-Elk-1 (Ser383), anti-phospho-Kv4.2 (Thr607)-R, anti-phospho-MSK-1, anti-phospho-MEK-1, c-Fos and Tyrosine Hydroxylase overnight at 4° C. Sections were then incubated with biotinylated goat anti-rabbit IgG (1:200, Vector Labs) for 2 h. Detection of the bound antibodies was carried out using a standard peroxidase-based method (ABC-kit, Vectastain, Vector Labs), followed by a DAB and H2O2 solution. Quantification of positive neurons were counted from striatum in 2-3 sections per mouse, bilaterally. Sample areas were visualized under a 20× objective in a Leica DM IRB microscope by a blind investigator to condition and counts per region were averaged across the sections using the ImageJ software.

[2] = system: C57BL/6 mice treated with 3-NP; experiment: 3-Nitropropionic acid (3-NP) pharmacological mouse model of Huntington's disease; assay type: in vivo; settings: 20 mg/kg i.p. twice a day, 3-NP 50 mg/kg once a day, 7 days
Method: Importantly, this reduction resembled physiological condition (RB5 3-NP vs RB5 Saline p=0.85). Mean±SEM, n=10 each experimental group).
Before use, CCP-SCR and CPP-RB5 were diluted in PBS 1× and injected twice a day at 12 hr intervals (20 mg/kg). 3-NP was injected 1 h after peptides once a day for 7 consecutive days (50 mg/kg) in male C57B/6 mice. All drugs were administered by intraperitoneal (i.p.) injection in a volume of 10 ml/kg. The mice were euthanized 1 hr after the last peptide injection and transcardially perfused with buffered 4% PFA, and processed for immunohistochemistry. The DeadEnd Colorimetric TUNEL System (Promega) was used to detect apoptotic cells on tissue sections […] thick. For each animal three consecutive coronal sections were taken, mounted on glass slides and processed for immunohistochemical analysis according to the recommended procedures. For quantification, the number of positive neurons in each section was counted across the dorsolateral region of the striatum of both hemispheres and means values were calculated.
We set up a protocol in which male C57BL/6 mice were injected with CPP-SCR or CPP-RB5 peptides (20 mg/kg, i.p.) twice a day (every 12 h) for 7 days and 1 h after peptides injection they received one injection of 3-NP (50 mg/kg). At the end of treatment, animals were perfused and brains were prepared as for immunohistochemistry.

Molecule | nuclear ERK-dependent signalling and gene transcription (pMSK, pAcH3, pELK, c-Fos) ([1]; 20 mg/kg i.p.) | striatal ERK phosphorylation (pERK1/2) ([1]; 20 mg/kg i.p.) | cytoplasmic signalling measured by ribosomal S6 phosphorylation ([1]; 20 mg/kg) | phosphorylation of voltage-gated potassium channel (pKv4.2) and MEK-1 ([1]; 20 mg/kg, vs CPP-SCR) | Caspase-3 levels (striatum) [2] | apoptotic levels (TUNEL, striatum) [2] | phosphorylation of the cytoplasmic markers (pMEK-1, pVGK+, pS6) ([1]; 20 mg/kg i.p.)
GRKKRRQRRRPPQGGGGGEPRRTEGVGPGVPGEVEMVKGQPFDV (listed as Homo sapiens) [CPP-RB5] | significantly increased | significantly enhanced | at a lesser extent reduced | comparable between the two treatments | reduce pre-apoptotic levels of Caspase 3 marker to control levels | reducing apoptosis to control levels | 
CSCC[C@H](NC(=O)[C@H](CCC(=O)O)NC(=O)[C@@H](NC(=O)[C@H](CCC(=O)O)NC(=O)CNC(=O)[C@@H]1CCCN1C(=O)[C@@H](NC(=O)CNC(=O)[C@@H]1CCCN1C(=O)CNC(=O)[C@@H](NC(=O)CNC(=O)[C@H](CCC(=O)O)NC(=O)[C@@H](NC(=O)[C@H](CCCNC(=N)N)NC(=O)[C@H](CCCNC(=N)N)NC(=O)[C@@H]1CCCN1C(=O)[C@H](CCC(=O)O)NC(=O)CNC(=O)CNC(=O)CNC(=O)CNC(=O)CNC(=O)[C@H](CCC(N)=O)NC(=O)[C@@H]1CCCN1C(=O)[C@@H]1CCCN1C(=O)[C@H](CCCNC(=N)N)NC(=O)[C@H](CCCNC(=N)N)NC(=O)[C@H](CCCNC(=N)N)NC(=O)[C@H](CCC(N)=O)NC(=O)[C@H](CCCNC(=N)N)NC(=O)[C@H](CCCNC(=N)N)NC(=O)[C@H](CCCCN)NC(=O)[C@H](CCCCN)NC(=O)[C@H](CCCNC(=N)N)NC(=O)CNC(C)=O)[C@@H](C)O)C(C)C)C(C)C)C(C)C)C(=O)N[C@H](C(=O)N[C@@H](CCCCN)C(=O)NCC(=O)N[C@@H](CCC(N)=O)C(=O)N1CCC[C@H]1C(=O)N[C@@H](Cc1ccccc1)C(=O)N[C@@H](CC(=O)O)C(=O)N[C@@H](C(=O)O)C(C)C)C(C)C [RB5] | selective activation | enhanced |  |  | diminished Caspase-3 levels | significant reduction of apoptotic levels | did not influence
